Source: PubChem BioAssay (NCI)
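In this assay, cells in 96-well plates receive the compound at five concentrations for 48 hours. Endpoints are linearly interpolated between the surrounding concentrations. GI50: concentration for 50% inhibition of growth. The concentration for full growth arrest is given as TGI.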

Tested on: MDA-MB-468 breast
Assay: NCI anticancer screen, dose series, 48 h

| SMILES | GI50 [µM] | TGI [µM] |
| --- | --- | --- |
| CCOc1cc(C(C)(C)C)ccc1C1=N[C@@](C)(c2ccc(Cl)cc2)[C@@](C)(c2ccc(Cl)cc2)N1C(=O)N1CCN(CCCS(C)(=O)=O)CC1 | 2.53 | 7.92 |
| Cc1ccc2[nH]c(O)c(N=Nc3ccc(S(N)(=O)=O)cc3)c2c1 | 6.67 | > 25 |
| O=c1cc(NC2CCN(CCCc3ccccc3)CC2)c2cc(Cl)ccc2o1 | 5.82 | 21.8 |
| C[C@H](O)C(=O)N1CCC(CCn2c(Sc3cc4c(cc3Br)OCO4)nc3c(N)ncnc32)CC1 | 0.482 | 2.92 |
| Cc1[nH]c2ccccc2c(=O)c1CC=C(Cl)Cl | 18.8 | > 100 |
| COc1cc2[nH]c(C(=O)c3cc(OC)c(OC)c(OC)c3)c(N)c2cc1C#CC1CC1 | 2.08 | 8.28 |
| COc1ccc(/C=C/C(=O)C(CC2CCC2)C(=O)/C=C/c2ccc(OC)c(OC)c2)cc1OC | 1.59 | 3.69 |
| CC1(C)[C@@H](OC(N)=O)[C@H]2O[C@H]2[C@]2(C=O)[C@H]3CC[C@]4(C)[C@@H](c5ccc(=O)oc5)[C@@H](Cl)C[C@]4(O)C3=CC[C@@H]12 | 0.0062 | 0.0178 |
| COc1cc(/C=C/c2cc(/C=C/c3ccc(O)c(OC)c3)n(C(=O)Nc3ccc(C)cc3C)n2)ccc1O | 0.242 | 0.75 |
| CCOC(=O)c1sc(NCC(=O)Nc2cccc([N+](=O)[O-])c2)c(C(=O)OCC)c1C | 0.67 | 2.23 |
| COc1ccc(C(=O)COc2ccc(/C=C3\COc4ccc(OC)cc4C3=O)cc2)cc1 | 18 | 88.2 |
| CC/C=C\C[C@H]1C/C=C2/C(=O)C=C[C@@H]2C/C=C\CCCC(=O)O1 | 0.854 | 2.73 |
| Cc1ncc(CCCN(C)C)cc1Nc1ncc2c(n1)-c1ccc(C(F)(F)F)cc1NC(=S)C2 | < 0.0212 | 1.58 |
| COc1cccc2c(=O)c3c(sc12)c(N1CCNCC1)nc1ccccc13 | 1.66 | 3.3 |
| COc1cc(C(=O)c2cc(C)c3[nH]c4ccc(C)cc4c3c2C)cc(OC)c1OC | < 0.01 | 3.68 |
| O=S(=O)(Nc1cc(Sc2cccc3cccnc23)c(O)c2ccccc12)c1ccccc1 | 1.29 | 3.2 |
| CCCCCCCCCCCCCCCCCCOc1ccccc1CC(=O)OCC[N+]1(C)CCCC1 | 1.7 | 4.51 |
| O=C1Nc2ccc(F)cc2/C1=C/c1ccc[nH]1 | 0.203 | 1.5 |
| C#CCOc1cccc(-c2nc(N)nc(Nc3ccccc3SSc3ccccc3Nc3nc(N)nc(-c4cccc(OCC#C)c4)n3)n2)c1 | > 33.3 | > 33.3 |
| COc1ccc(/C=N/NC(=O)c2[nH]c3ccc(Br)cc3c2-c2ccccc2)o1 | 0.0588 | 3.36 |
| CN(C)CCN1C(=O)c2ccc3c4c(ccc(c24)C1=O)C(=O)N(CCN=C=S)C3=O | 0.0263 | 0.101 |
| CCn1c(SCc2ccc(C)cc2)nnc1-c1nn(-c2ccc(Cl)cc2Cl)c(-c2ccc(Cl)cc2)c1C | 0.623 | 10.6 |
| CC(C)(C[C@H]1CN(S(=O)(=O)c2cccc(C(F)(F)F)c2)c2cc(-c3cc(F)cc(OC(F)F)c3)ccc2O1)C(=O)O | 3.41 | 25.1 |
| CN(C)C(=O)[C@H](O)[C@H](Cc1ccccc1)NC(=O)c1cc2cc(Cl)ccc2[nH]1 | 20.1 | 77.6 |
| CC(C)C[C@H](NC(=O)/C=C/Cn1ccc2ccccc2c1=O)B(O)O | 0.681 | 4.71 |
| COC(=O)[C@H]1[C@@H](O)[C@@]2(O)c3c(OC)cc(OC)cc3O[C@@]2(c2ccc(OC)cc2)[C@@H]1c1ccccc1 | 0.00783 | 0.116 |
